The target in the assay is T1, hTAS1R2/hTAS1R3(r570–858) (Homo sapiens, UniProt Q7RTX0+Q8TE23, A579V/A607F/A718V/A733V/A735I/A808T/C675Y/C757R/D670N/F730L/G674S/G822E/H593Y/H712Q/L571S/L639M/L789Y/L798I/L800F/L816V/M689T/M713V/M818L/P605S/P630S/P826Q/Q627R/Q820L/R594W/R632S/R671W/R752Q/R790Q/R813K/R819W/S577C/S629R/S640A/S673C/T697A/T724M/T739V/T774I/V583T/V612I/V617F/V693A/V701M/V720E/V788A/V802A).
T1 construct: hTAS1R3(r570–858) consists of the N-terminal extracellular domain of hTAS1R3 and the TMD of rTAS1R3; TMD of rTAS1R3 (r570–858); expressed in transfected cells
T1 sequence (Q8TE23 20-839, stated change not applied): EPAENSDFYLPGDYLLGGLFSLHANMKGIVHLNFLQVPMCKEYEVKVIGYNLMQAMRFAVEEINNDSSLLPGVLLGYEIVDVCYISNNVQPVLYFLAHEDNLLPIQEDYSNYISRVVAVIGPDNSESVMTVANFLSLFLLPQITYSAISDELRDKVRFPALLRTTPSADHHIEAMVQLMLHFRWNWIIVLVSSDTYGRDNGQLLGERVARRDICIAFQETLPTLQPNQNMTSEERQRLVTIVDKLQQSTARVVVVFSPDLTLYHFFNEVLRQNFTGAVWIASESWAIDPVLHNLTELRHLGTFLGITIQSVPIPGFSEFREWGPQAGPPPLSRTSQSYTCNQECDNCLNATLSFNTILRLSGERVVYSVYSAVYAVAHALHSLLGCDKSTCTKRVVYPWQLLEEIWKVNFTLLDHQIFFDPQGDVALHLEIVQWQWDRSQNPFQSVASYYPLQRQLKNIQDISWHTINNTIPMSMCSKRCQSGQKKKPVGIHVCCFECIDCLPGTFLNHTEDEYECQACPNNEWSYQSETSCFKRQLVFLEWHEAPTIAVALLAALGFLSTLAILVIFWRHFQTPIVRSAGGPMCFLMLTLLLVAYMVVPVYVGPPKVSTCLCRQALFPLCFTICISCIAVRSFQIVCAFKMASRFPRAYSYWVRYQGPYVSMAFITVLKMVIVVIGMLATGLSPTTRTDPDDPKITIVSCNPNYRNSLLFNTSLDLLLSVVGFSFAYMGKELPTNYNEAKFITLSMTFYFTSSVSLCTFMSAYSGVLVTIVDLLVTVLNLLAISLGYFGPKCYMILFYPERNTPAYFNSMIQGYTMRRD
T1 sequence (Q7RTX0 with tags, fused parts or gaps with the stated changes limits assumed): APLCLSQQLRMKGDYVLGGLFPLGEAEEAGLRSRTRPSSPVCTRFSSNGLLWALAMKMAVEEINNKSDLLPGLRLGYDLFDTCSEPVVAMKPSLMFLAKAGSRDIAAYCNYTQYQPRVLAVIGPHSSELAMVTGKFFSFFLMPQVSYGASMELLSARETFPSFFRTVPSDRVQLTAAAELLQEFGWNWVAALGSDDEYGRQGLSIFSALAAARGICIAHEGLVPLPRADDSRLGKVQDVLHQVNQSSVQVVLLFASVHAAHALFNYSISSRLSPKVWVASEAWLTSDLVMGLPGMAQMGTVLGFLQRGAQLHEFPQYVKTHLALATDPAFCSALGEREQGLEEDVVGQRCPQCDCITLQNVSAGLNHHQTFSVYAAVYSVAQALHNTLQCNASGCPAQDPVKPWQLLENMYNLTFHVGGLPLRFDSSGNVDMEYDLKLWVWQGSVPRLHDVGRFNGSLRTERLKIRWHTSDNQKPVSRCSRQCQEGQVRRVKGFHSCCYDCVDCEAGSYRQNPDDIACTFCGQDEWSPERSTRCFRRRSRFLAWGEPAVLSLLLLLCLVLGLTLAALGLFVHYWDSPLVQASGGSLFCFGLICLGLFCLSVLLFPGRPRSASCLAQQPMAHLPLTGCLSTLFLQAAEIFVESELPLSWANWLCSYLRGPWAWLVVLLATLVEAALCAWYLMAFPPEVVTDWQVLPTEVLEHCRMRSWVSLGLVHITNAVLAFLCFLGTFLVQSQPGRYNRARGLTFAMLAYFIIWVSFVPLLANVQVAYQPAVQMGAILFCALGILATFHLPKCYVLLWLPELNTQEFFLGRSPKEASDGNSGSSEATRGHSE
Kind of assay: Calcium assay, chimeric TAS1R3 co-expressed with hTAS1R2. In kind it is cell-based, rat. The source says: Chimeric Gα proteins, such as Gα16Gust44, Gα16Gi3 or Gα15i2, are widely used in the functional expression of TAS1R receptors ([Backes et al., 2015]; [Suess et al., 2015]; [Toda et al., 2021], [Toda et al., 2013], [Toda et al., 2018]; [Zhang et al., 2008]). Chimeric Gα15i2 (([Toda et al., 2013]), Supplementary data) was generated by replacing the last five residues of the C-terminal tail of rat Gα15i2 (EINLL) (UniProt number G3V6N8; https://www.uniprot.org/uniprot/) with the counterpart sequence from human GNAI2 (DCGLF) (UniProt number P04899-1) and cloning into the pcDNA3.1/Hygro vector (Invitrogen, Thermo Fisher Scientific, Illkirch, France) between the HindIII and NotI restriction sites, resulting in the plasmid pcDNA3.1-Gα15i2. Chimeric Gα16Gust44 construct have already been reported ([Raliou et al., 2011]). Briefly, Gα16Gust44 was generated by replacing the C-terminal of Gα16 with the C-terminal 44 residues of gustducin. As previously described, hTAS1R1 was amplified from human fungiform papillae cDNA and cloned and inserted into pcDNA3 (Invitrogen), generating pcDNA3-TAS1R1-WT (wild-type) ([Raliou et al., 2011]). […]

Molecules are shown by their SMILES.

Consider `N[C@@H](CCC(=O)N[C@@H](CS)C(=O)NCC(=O)O)C(=O)O` [GSH, γ-L-glutamyl-L-cysteinyl-glycine], for which the “effect of GSH on the response to sucralose” value is on record as “unaffected”.
Consider `OC[C@H]1O[C@H](O[C@]2(CCl)O[C@H](CCl)[C@@H](O)[C@@H]2O)[C@H](O)[C@@H](O)[C@H]1Cl` [sucralose, reference compound], for which, where the note is “sucralose alone, Fig. 3B”, the EC50 – broadly, the concentration at which the effect is half-maximal – was 67 ± 1 µM.

These data come from paper PMC12615753, “Glutathione as a taste modulator: molecular mechanisms of interaction with umami and sweet taste receptors” (Food Chemistry: Molecular Sciences, 2025).
